One experiment has as its system 5-LOX. Particulars: cited from earlier work.
Experiment [1] addresses T1, soybean 15-LOX (Glycine max, UniProt P08170).
T1 construct: purchased
T1 sequence (P08170 1-839): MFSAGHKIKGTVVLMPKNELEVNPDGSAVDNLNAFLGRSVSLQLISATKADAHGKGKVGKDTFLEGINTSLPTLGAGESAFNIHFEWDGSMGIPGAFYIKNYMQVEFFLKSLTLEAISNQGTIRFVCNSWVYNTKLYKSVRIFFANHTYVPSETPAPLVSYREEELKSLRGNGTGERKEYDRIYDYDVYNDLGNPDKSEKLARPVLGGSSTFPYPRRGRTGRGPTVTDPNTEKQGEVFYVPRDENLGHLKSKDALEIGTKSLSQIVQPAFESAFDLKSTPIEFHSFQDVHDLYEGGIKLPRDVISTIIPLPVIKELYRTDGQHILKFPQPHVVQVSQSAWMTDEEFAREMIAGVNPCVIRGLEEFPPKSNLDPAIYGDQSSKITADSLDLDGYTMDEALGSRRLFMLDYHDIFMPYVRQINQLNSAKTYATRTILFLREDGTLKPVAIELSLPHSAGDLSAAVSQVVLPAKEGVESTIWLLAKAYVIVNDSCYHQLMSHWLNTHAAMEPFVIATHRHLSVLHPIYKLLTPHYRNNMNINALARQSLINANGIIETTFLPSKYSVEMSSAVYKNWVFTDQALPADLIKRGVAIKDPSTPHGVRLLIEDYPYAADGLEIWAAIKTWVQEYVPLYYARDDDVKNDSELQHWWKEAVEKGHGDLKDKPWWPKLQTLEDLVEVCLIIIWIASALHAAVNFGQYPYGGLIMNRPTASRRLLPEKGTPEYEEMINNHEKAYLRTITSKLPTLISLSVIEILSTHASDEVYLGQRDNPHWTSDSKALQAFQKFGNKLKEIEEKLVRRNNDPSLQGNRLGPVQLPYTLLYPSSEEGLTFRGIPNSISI
Nature of the experiment: In vitro soybean 15-lipoxygenase inhibition assay (spectrophotometric, linoleic acid substrate). Format: biochemical. The note with it: for inhibition at 100 µg/mL: read-out: % Inhibition (100 μg/mL). Here is the method: The target compounds (3a, 3c, 3e–g), intermediates (2a, 2c–g) and the starting material (1) were preliminary evaluated in vitro for their ability to inhibit soybean 15-LOX activity by using spectrophotometric method. Bioactivity screening for soybean 15-LOX inhibition by the target compounds was carried out at 100 μg/mL concentration. […] The bioactivities of the compounds were also compared to tHGA as the parent compound.
In vitro soybean 15-LOX inhibiting activity was measured using spectrophotometric method. In brief, sodium phosphate buffer (160 μL, 100 mM, pH 8.0), test sample (10 μL) and soybean 15-LOX (1.13.11.12) type I-B solution (20 μL, 320 U/well) were mixed and incubated for 15 min at 25 °C. The reaction was then initiated by the addition of the substrate in the form of linoleic acid (10 μL, 0.6 mM) solution. The enzymatic conversion of linoleic acid to form (9Z,11E)-(13S))-13-hydroperoxyoctadeca-9,11-dienoate end product was followed by the change of absorbance measured at 234 nm over a period for 6 min. Test samples and reference standards were dissolved in DMSO. Stock solutions were prepared at concentration 100 μg/mL for pure compounds. […] All reactions were performed in triplicate in a 96-well microtitre plate. The IC50 was calculated from the non-linear regression fitting curve of GraphPad Prism 5. The percentage of inhibition (%) can be calculated from the following formula [17]: [drawing 1] (1)

Experiment [2] relates to airway hyperresponsiveness to methacholine challenge. Details: method as in PMID 21958738, PMID 22266348. Particulars: compared with Zileuton; cited from earlier work.
Experiment [3] concerns the target T1, soybean 15-LOX. Details: method as in PMID 16644538. The note with it: initial finding; read-out: IC50 against soybean 15-LOX (earlier studies); cited from earlier work.
Experiment [4] concerns activated macrophage cells. Details: method as in PMID 16644538. The note with it: cited from earlier work.
Where [5] appears, read: isolated from Hypericum empetrifolium, read-out: IC50 against 5-LOX.
The mark [6] stands for this setting: soybean 15-LOX, read-out: IC50 Value (μM) Mean ± SEM.
The mark [7] stands for this setting: rounded values printed in Figure 1, read-out: 15-LOX IC50 (Figure 1).

These results are taken from publication PMC6271415, “Synthesis and Docking Studies of 2,4,6-Trihydroxy-3-Geranylacetophenone Analogs as Potential Lipoxygenase Inhibitor” (Molecules, 2014).

Read-outs that look alike come from different tables or passages of the source. Some results are limits rather than exact numbers.

In general, IC50 refers to the concentration that gives 50% inhibition. On to “3-geranyl-1-(2'-methylbutanoyl)phloroglucinol [compound 4]”, for which the half-inhibitory concentration (IC50) in the experiment on 5-LOX (setting [5]) is 5.8 µM.
As to `CC(C)C(=O)c1c(O)cc(O)cc1O` [2a, 2-Methyl-1-(2,4,6-trihydroxyphenyl)propan-1-one], the inhibition at 100 µg/mL at soybean 15-LOX [1] (100 μg/mL, mean ± SEM) worked out at 19.4 ± 5%. On soybean 15-LOX [1] (setting [6]), the IC50 is more than 100 µM.
For the compound `CCC(=O)c1c(O)cc(O)cc1O` [2c, 1-(2,4,6-Trihydroxyphenyl)propan-1-one], at soybean 15-LOX [1] (100 μg/mL, mean ± SEM), the “% Inhibition (100 μg/mL)” value is “did not exhibit any anti-inflammatory activity”. For the same compound, at soybean 15-LOX [1] (setting [6]), the IC50 is more than 100 µM.
With `CC(C)(C)C(=O)c1c(O)cc(O)cc1O` [2d, 2,2-Dimethyl-1-(2,4,6-trihydroxyphenyl)propane-1-one], the inhibition at 100 µg/mL on soybean 15-LOX [1] (100 μg/mL, mean ± SEM) stood at 16.9 ± 1.9%. The IC50 at soybean 15-LOX [1] (setting [6]) is more than 100 µM.
Regarding `CCCCC(=O)c1c(O)cc(O)cc1O` [2e, 1-(2,4,6-Trihydroxyphenyl)pentan-1-one], at soybean 15-LOX [1], the IC50 is more than 100 µM and the inhibition at 100 µg/mL turned out to be 24.5 ± 3.2%.
`O=C(c1c(O)cc(O)cc1O)C1CCCCC1` [2f, Cyclohexyl(2,4,6-trihydroxyphenyl)methanone]: the inhibition at 100 µg/mL at soybean 15-LOX [1] (100 μg/mL, mean ± SEM) was 17.5 ± 3%. Besides, at soybean 15-LOX [1] (setting [6]), the concentration for half-maximal inhibition (IC50) was more than 100 µM.
Take `O=C(/C=C/c1ccccc1)c1c(O)cc(O)cc1O` [2g, (E)-3-Phenyl-1-(2,4,6-trihydroxyphenyl)prop-2-en-1-one]: at soybean 15-LOX [1] (100 μg/mL, mean ± SEM), the “% Inhibition (100 μg/mL)” value is “did not exhibit any anti-inflammatory activity”. Also, the IC50 at soybean 15-LOX [1] (setting [6]) is more than 100 µM.
Turning to `CC(C)=CCC/C(C)=C/Cc1c(O)cc(O)c(C(=O)C(C)C)c1O` [3a, 3-Geranyl-1-(2'-methylpropanoyl)phloroglucinol], the IC50 in the experiment with 5-LOX (setting [5]) is 2.2 µM; at soybean 15-LOX [1] (setting [7]) it was 27 µM; at soybean 15-LOX [1] (setting [6]), 27.6 ± 3.6 µM. Further, the inhibition at 100 µg/mL at soybean 15-LOX [1] (100 μg/mL, mean ± SEM) turned out to be 90.3 ± 4.1%.
With `CCC(=O)c1c(O)cc(O)c(C/C=C(\C)CCC=C(C)C)c1O` [3c, (E)-1-(3-(3,7-Dimethylocta-2,6-dienyl)-2,4,6-trihydroxyphenyl)propan-1-one], on soybean 15-LOX [1] (100 μg/mL, mean ± SEM), the inhibition at 100 µg/mL was 94.4 ± 3%. Besides, the IC50 at soybean 15-LOX [1] (setting [6]) is 12.3 ± 0.6 µM.
Regarding `CCCCC(=O)c1c(O)cc(O)c(C/C=C(\C)CCC=C(C)C)c1O` [3e, (E)-1-(3-(3,7-Dimethylocta-2,6-dienyl)-2,4,6-trihydroxyphenyl)pentan-1-one], the inhibition at 100 µg/mL on soybean 15-LOX [1] (100 μg/mL, mean ± SEM) turned out to be 90.3 ± 4.4%. For the same compound, the 50% inhibitory concentration (IC50) at soybean 15-LOX [1] (setting [6]) came to 10.3 ± 1.5 µM.
The corresponding values for `CC(C)=CCC/C(C)=C/Cc1c(O)cc(O)c(C(=O)C2CCCCC2)c1O` [3f, (E)-Cyclohexyl (3-(3,7-dimethylocta-2,6-dienyl)-2,4,6-trihydroxyphenyl)-methanone] are 88.8 ± 5.9% and 26.3 ± 1.3 µM.
On the same counts, the results for `CC(C)=CCC/C(C)=C/Cc1c(O)cc(O)c(C(=O)/C=C/c2ccccc2)c1O` [3g, (E)-1-(3-((E)-3,7-Dimethylocta-2,6-dienyl)-2,4,6-trihydroxyphenyl)-3-phenylprop-2-en-1-one] are 90.8 ± 7.6% and 15.2 ± 1.2 µM.
On the same counts, the results for `Oc1cc(O)cc(O)c1` [compound 1, phloroglucinol] are 23.2 ± 2.2% and more than 100 µM.
As to `CC(=O)c1c(O)cc(O)c(C/C=C(\C)CCC=C(C)C)c1O` [tHGA, 2,4,6-trihydroxy-3-geranylacetophenone], the “efficacy in acute murine asthma model (airway hyperresponsiveness, cellular infiltration, cytokines, cysLT, IgE)” value in experiment [2] was “as effective as Zileuton”. In addition, the IC50 at soybean 15-LOX [3] is 20 µM; in the experiment with 5-LOX (Figure 1, read-out: 5-LOX IC50) it was 0.42 µM; on soybean 15-LOX [1] (setting [7]), 23 µM; at soybean 15-LOX [1] (setting [6]), 23.6 ± 1.7 µM. In addition, the “inhibition of cysteinyl leukotriene secretion” value in experiment [4] is on record as “dose-dependent inhibition”. Moreover, at soybean 15-LOX [1] (100 μg/mL, mean ± SEM), the inhibition at 100 µg/mL amounted to 94.3 ± 3.4%.
